In one assay the test system is A-431. As to the kind of experiment: Antiproliferative activity against human A431 wild type cells measured after 72 hrs by Sulforhodamine B assay. It is filed as functional, cell-based. Particulars: A-431, 72 h. Background: Sulforhodamine B stains cellular protein and so reports cell mass.
Assay [1] in a line: Antiproliferative activity against human H1975-1 harboring EGFR L858R/T790M mutant measured after 72 hrs by sulforhodamine B assay. It counts as functional.
Assay [2] deals with Epidermal growth factor receptor (Homo sapiens, UniProt P00533, L858R/T790M). As to the kind of experiment: Inhibition of EGFR L858R/T790M (unknown origin).
A further assay relates to HCC827. Kind of assay: Antiproliferative activity against human HCC827 cells measured after 72 hrs by sulforhodamine B assay. It counts as functional, cell-based. Particulars: HCC827, 72 h.
Assay [3] deals with Epidermal growth factor receptor (Homo sapiens, UniProt P00533). As to the kind of experiment: Inhibition of wild type EGFR (unknown origin).
Another assay relates to L02. Kind of assay: Cytotoxicity against human HL7702 cells measured after 72 hrs by sulforhodamine B assay. It is filed as cell-based. Particulars: L02, 72 h.
For a further assay, the system named is A549. As to the kind of experiment: Antiproliferative activity against human A549 cells measured after 72 hrs by sulforhodamine B assay. It counts as functional, cell-based. Particulars: A549, 72 h.

Sequence of Epidermal growth factor receptor (Homo sapiens, UniProt P00533) (P00533 whole entry): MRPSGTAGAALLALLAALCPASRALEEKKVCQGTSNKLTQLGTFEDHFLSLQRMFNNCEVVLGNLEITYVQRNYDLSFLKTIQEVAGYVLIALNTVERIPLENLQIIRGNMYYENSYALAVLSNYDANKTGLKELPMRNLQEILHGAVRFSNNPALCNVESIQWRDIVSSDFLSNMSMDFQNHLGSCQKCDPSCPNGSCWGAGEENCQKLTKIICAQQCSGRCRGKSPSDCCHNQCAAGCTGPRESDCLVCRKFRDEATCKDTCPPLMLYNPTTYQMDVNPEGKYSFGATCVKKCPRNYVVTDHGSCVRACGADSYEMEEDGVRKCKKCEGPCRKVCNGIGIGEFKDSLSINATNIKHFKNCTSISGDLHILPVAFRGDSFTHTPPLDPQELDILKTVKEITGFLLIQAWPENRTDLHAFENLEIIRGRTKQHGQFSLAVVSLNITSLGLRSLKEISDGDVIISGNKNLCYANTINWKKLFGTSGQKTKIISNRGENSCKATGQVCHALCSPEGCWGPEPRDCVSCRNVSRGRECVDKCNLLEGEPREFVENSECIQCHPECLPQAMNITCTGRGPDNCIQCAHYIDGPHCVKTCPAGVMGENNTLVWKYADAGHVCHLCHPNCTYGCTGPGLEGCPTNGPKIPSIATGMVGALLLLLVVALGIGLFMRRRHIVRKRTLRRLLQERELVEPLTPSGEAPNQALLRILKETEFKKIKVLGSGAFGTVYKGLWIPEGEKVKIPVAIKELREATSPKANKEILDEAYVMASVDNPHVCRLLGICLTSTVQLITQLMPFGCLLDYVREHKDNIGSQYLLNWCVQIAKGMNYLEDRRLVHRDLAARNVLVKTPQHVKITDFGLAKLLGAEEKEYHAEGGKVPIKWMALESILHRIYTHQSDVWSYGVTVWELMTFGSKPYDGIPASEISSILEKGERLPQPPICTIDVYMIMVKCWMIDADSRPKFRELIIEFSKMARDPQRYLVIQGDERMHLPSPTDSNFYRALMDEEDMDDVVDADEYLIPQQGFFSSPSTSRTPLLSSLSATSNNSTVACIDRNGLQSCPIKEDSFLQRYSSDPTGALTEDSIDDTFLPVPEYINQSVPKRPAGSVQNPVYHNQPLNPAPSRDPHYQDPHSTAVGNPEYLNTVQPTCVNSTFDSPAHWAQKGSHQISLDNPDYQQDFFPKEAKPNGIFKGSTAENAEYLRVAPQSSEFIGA
Sequence of Epidermal growth factor receptor (Homo sapiens, UniProt P00533, L858R/T790M) (P00533 25-1210 T790M/L858R limits assumed): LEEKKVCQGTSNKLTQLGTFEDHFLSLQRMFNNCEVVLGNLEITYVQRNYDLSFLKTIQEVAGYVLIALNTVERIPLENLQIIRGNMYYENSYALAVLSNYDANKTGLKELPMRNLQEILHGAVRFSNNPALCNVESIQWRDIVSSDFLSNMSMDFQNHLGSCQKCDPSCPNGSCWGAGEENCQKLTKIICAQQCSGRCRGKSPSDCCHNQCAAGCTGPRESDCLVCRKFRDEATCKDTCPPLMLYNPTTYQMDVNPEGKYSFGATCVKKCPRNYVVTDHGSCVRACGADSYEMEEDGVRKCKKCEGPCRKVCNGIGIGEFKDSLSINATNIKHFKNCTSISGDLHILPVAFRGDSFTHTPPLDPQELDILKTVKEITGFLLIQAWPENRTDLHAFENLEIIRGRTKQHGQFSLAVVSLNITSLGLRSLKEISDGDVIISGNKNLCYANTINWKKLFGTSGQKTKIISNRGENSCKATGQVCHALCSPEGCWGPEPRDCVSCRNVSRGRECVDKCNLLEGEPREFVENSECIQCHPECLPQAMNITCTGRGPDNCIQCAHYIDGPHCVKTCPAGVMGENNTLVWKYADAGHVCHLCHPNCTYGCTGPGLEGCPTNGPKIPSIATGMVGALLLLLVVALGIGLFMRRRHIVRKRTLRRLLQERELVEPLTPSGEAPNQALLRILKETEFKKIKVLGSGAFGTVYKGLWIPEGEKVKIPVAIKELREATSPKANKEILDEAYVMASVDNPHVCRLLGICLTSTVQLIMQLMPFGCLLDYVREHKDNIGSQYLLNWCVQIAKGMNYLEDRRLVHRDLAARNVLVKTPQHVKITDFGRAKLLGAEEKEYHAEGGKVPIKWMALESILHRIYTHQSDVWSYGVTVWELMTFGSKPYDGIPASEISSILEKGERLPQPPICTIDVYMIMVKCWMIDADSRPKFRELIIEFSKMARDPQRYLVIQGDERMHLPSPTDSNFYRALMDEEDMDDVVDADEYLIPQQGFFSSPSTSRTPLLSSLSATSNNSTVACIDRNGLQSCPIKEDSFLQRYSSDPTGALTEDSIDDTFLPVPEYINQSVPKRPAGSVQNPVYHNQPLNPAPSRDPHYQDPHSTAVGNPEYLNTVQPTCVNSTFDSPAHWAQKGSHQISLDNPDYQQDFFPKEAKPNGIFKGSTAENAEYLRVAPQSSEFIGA

As to `C=C1C(=O)O[C@@H]2C3O[C@]3(C)CC/C=C(\C)CC[C@@H]12` (stereo partly drawn), the values for the concentration for half-maximal inhibition (IC50) (with A-431; in assay [1]) were 2570 nM and 1430 nM, respectively.
For `C=C1C[C@](CCl)(c2ccccc2)OC1=O` the same measures were 30600 nM and 9770 nM.
Taken in the same sequence, the figures for `C=C1C[C@@](CCl)(c2ccccc2)OC1=O` were 43000 nM and 21400 nM.
Regarding `C=C1C[C@]2(Cc3ccccc3[C@H]2Br)OC1=O`, the IC50 – broadly, the point on the concentration scale where inhibition reaches its midpoint – with A-431 is 2090 nM; in assay [1], 4390 nM.
For `C=C1C[C@]2(CCCc3ccccc3[C@H]2Br)OC1=O` the same measures were 3300 nM and 1200 nM.
For `C=C1CC[C@](CBr)(c2ccccc2)OC1=O` the same measures were 10900 nM and 1330 nM.
Taken in the same sequence, the figures for `C=C1C[C@]2(CCc3ccccc3[C@H]2Br)OC1=O` were 4100 nM and 1220 nM.
As for `C=C1CC[C@@](CBr)(c2ccccc2)OC1=O`, the IC50 in the assay on A-431 turned out to be 2200 nM; in assay [1], 1620 nM.
For `C=C1C[C@@]2(CCCc3ccccc3[C@@H]2Br)OC1=O` the same measures were 2500 nM and 1000 nM.
As for `C=C1C[C@](CBr)(c2ccccc2)OC1=O`, the values for the IC50 (in the assay with A-431; in assay [1]) were 1330 nM and 970 nM, respectively.
On to `C=C1CC(CBr)(c2ccc(C)cc2)OC1=O` (racemic), for which the IC50 with A-431 came to 2200 nM; in assay [1], 1100 nM.
Turning to `C=C1CC(CI)(c2ccc(F)cc2)OC1=O` (racemic), the IC50 in assay [2] came out at 15000 nM; in the assay with HCC827, 1100 nM; in assay [3], 24000 nM; in the assay with A-431, 1900 nM; in the assay with L02, 1200 nM; in the assay with A549, 1210 nM. Further, the midpoint of inhibition in assay [1], the IC50, lay at 600 nM.
On to `C=C1CC(CBr)(c2ccccc2C)OC1=O` (racemic), for which the figures for the IC50 (in the assay on A-431; in assay [1]) were 5500 nM and 3500 nM, respectively.
Take `C=C1CC(c2ccccc2)(C(Cl)c2ccccc2)OC1=O` (racemic): the figures for the IC50 (in the assay with A-431; in assay [1]) were 2770 nM and 1260 nM, respectively.
For `C=C1C[C@]2(CCCC[C@H]2Br)OC1=O` (racemic) the same measures were 21200 nM and 4550 nM.
Taken in the same sequence, the figures for `C=C1CC(CO)(c2ccccc2)OC1=O` (racemic) were 4060 nM and 2260 nM.
Regarding `C=C1CC(C[Se]c2ccccc2)(c2ccccc2)OC1=O` (racemic), the IC50 was found to be 1270 nM in the assay on A-431 and 1300 nM in assay [1].
Taken in the same sequence, the figures for `C=C1CC(CBr)(c2ccc(OC)cc2)OC1=O` (racemic) were 4200 nM and 2300 nM.
Taken in the same sequence, the figures for `C=C1CC(CBr)(c2ccccc2OC)OC1=O` (racemic) were 2400 nM and 1100 nM.
For `C=C1CC(c2ccccc2)(C(C)Br)OC1=O` (racemic) the same measures were 5240 nM and 1660 nM.
For `C=C1CC2(CCCc3ccccc3C2Br)OC1=O` (racemic), the figures for the IC50 (in the assay with A-431; in assay [1]) were 1270 nM and 1080 nM, respectively.
For `C=C1CC(CBr)(c2ccc(Cl)cc2)OC1=O` (racemic) the same measures were 1100 nM and 1540 nM.
Taken in the same sequence, the figures for `C=C1CC(CF)(c2ccccc2)OC1=O` (racemic) were 25100 nM and 13400 nM.
For the compound `C=C1CC(CBr)(c2ccc(F)cc2)OC1=O` (racemic), the IC50 in assay [2] was 30000 nM; with HCC827 it was 2300 nM; in assay [3], 64000 nM; in the assay on A-431, 800 nM; in the assay on L02 it was 2400 nM; in the assay with A549 it was 1680 nM. Besides, the IC50 in assay [1] turned out to be 600 nM.
Take `C=C1CC(CBr)(c2ccccc2F)OC1=O` (racemic): the figures for the IC50 (in the assay with A-431; in assay [1]) were 1700 nM and 1300 nM, respectively.
For `C=C1CC(CBr)(c2ccc(C(F)(F)F)cc2)OC1=O` (racemic) the same measures were 1010 nM and 1940 nM.
With `C=C1CC(CI)(c2ccccc2)OC1=O` (racemic), the concentration for half-maximal inhibition (IC50) in assay [2] was 26000 nM; in the assay on HCC827, 2200 nM; in assay [3], 47000 nM; in the assay on A-431, 2720 nM; in the assay on L02, 2200 nM; with A549 it was 1980 nM. Moreover, the IC50 in assay [1] amounted to 650 nM.
`C=C1CC(CBr)(c2ccccc2)OC1=O` (racemic): the IC50 is 1480 nM in the assay with A-431 and 800 nM in assay [1].
For `C=C1CC(c2ccccc2)(C(Br)c2ccccc2)OC1=O` (racemic), the IC50 in assay [2] stood at 14000 nM; in the assay with HCC827, 1000 nM; in assay [3] it was 29000 nM; in the assay on A-431 it was 4190 nM; with L02, 960 nM; in the assay on A549 it was 1370 nM. In assay [1], half-maximal inhibition (IC50) required 250 nM.
In the case of `C=C1CC(C)(CBr)OC1=O` (racemic), the 50% inhibitory concentration (IC50) in the assay on A-431 is 124000 nM; in assay [1], 32000 nM.
For `C=C1CN(S(=O)(=O)c2ccc([N+](=O)[O-])cc2)CC(CBr)(c2ccccc2)OC1=O` (racemic) the same measures were 21200 nM and 24200 nM.
Taken in the same sequence, the figures for `C=C1CC(CBr)(c2cccc(C)c2)OC1=O` (racemic) were 4500 nM and 1200 nM.
For `C=C1CC(C(Br)c2ccccc2)OC1=O` (racemic), the IC50 in the assay on A-431 is 20300 nM; in assay [1] it was 6200 nM.
As for `C=CC(=O)Nc1cc(Nc2nccc(-c3cn(C)c4ccccc34)n2)c(OC)cc1N(C)CCN(C)C` [OSIMERTINIB], the IC50 in the assay on HCC827 turned out to be 200 nM; in the assay with A-431, […]; with L02, 300 nM; with A549, 140 nM; in assay [1], 20 nM.
For the compound `CC(=O)O[C@H]1C(=O)[C@@]2(C)[C@H]([C@H](OC(=O)c3ccccc3)[C@]3(O)C[C@H](OC(=O)[C@H](O)[C@@H](NC(=O)c4ccccc4)c4ccccc4)C(C)=C1C3(C)C)[C@]1(OC(C)=O)CO[C@@H]1C[C@@H]2O` [PACLITAXEL], the IC50 in the assay with A-431 came out at 2 nM; in assay [1], 3 nM.

The record behind these values is ChEMBL document CHEMBL4616600, “Synthesis and cytotoxic evaluation of halogenated α-exo-methylene-lactones” (Bioorg Med Chem, 2020).
